Results published in US20250127165A1, “USE OF 2-AMINO-3-PHENYLBUTYRIC ACID OR 2,6-DIAMINO-3-METHYLHEXANOIC ACID AS PLANT IMMUNE RESISTANCE INDUCER” (NANJING TIANNONG BIOTECHNOLOGY CO., LTD., priority 2021, published 2025).

What was measured:
[1] = tested on: ryegrass; assay: Induced resistance of ryegrass to high temperature stress; type: in vivo; settings: for heat injury index (%): 45° C. 12 h, 7 days recovery
Procedure: 2,6-diamino-3-methylhexanoic acid was dissolved in distilled water and then gradiently diluted with distilled water into solutions of 1 nM, 10 nM, 100 nM, and 1,000 nM, and a blank control was set up, while 0.02% Tween 20 was added as surfactant. Four groups of replicates were set up for each concentration, and set up a blank control at room temperature. Ryegrass seeds were weighed and planted in a pot with a diameter of 8.5 cm at 0.8 g per pot, and transferred to a greenhouse with a temperature of 25° C., a humidity of 60%-70%, and a light intensity of 200 μmol m^−2s^−1 (12 h light/12 h darkness). After 7 days of growth, ryegrass was treated by spraying 2,6-diamino-3-methylhexanoic acid solution on the leaf surface, and spraying twice within 24 hours. 24 hours after the second spray, the plants were transferred to a light incubator at 45° C. for high temperature stress treatment. After 12 hours of treatment, they were removed and transferred to a greenhouse at 25° C. for 7 days for recovery. The injured conditions of the plants were observed and the grade of hot injury was calculated, where the grading standard of heat injury is shown in Table 8, and the formula for calculating the heat injury index is as follows.

[2] = tested on: lysine monooxygenase; settings: Ohnishi et al., 1976; cited from earlier work
[3] = tested on: tomato spotted wilt virus; assay: Induced resistance of tobacco to tomato spotted wilt virus infection; type: in vivo, Nicotiana benthamiana; settings: for viral protein content: leaves 3 days after inoculation, Western blot grey scale
Procedure: Tomato spotted wilt virus was obtained from Yunnan Province, China. The initial virus source was stored in a refrigerator at −80° C., and inoculated on the leaves of Nicotiana benthamiana using friction inoculation method to activate the virus. The virus plasmids were extracted and transformed with competent cells of Escherichia coli. The competent cells were coated on a resistant plate for culture. Single colonies were picked for PCR screening, and positive colonies were selected for sequencing and subsequent plasmid extraction. The plasmids with normal sequencing results were added to competent cells of Agrobacterium sp, and Agrobacterium was transformated by electroporation. A solution of the transformed Agrobacterium was coated on the corresponding resistant screening plate, and cultured at 28° C. (+1° C.) for 48 h. Single colonies of the Agrobacterium on transformation plate were picked, placed in 5 mL of LB medium with the corresponding resistance, and cultured overnight at 28° C., 180 rpm. The bacterial cells were collected by centrifugation at 6,000 rpm for 2 min, suspended with a treatment solution (10 mM MgCl2, 10 mM MES, and 10 μM Acetosyringone) until the OD600 value of the suspension was 0.5. The suspension was treated at 28° C. in the dark for 3 hours for later use. 2-amino-3-phenylbutyric acid was dissolved in distilled water and then gradiently diluted with distilled water into solutions of 0 nM, 0.1 nM, 1 nM, and 10 nM. Nicotiana benthamiana seeds were planted in small pots and incubated at 22° C. (+1° C.), 12 h/12 h light for 5 weeks. Healthy tobacco plants (preferably with 8-10 leaves) were selected and treated with the 2-amino-3-phenylbutyric acid solutions of the above concentrations by spraying on the stems and leaves, and repeated the treatment at 24-hour intervals for a total of two treatments. After 24 hours, a uniform concentration of Agrobacterium solution was extracted with a 1 mL syringe, the injection port of the syringe was pressed directly on the small hole on the back of the tobacco leaf, and the bacterial solution was slowly pushed in order to infiltrate soak the entire leaf. The infiltrated tobacco was moved to an environment of 24° C. (+1° C.), 12 h/12 h light for incubation. After 3 days, microscopic observation was performed and recorded. At the same time, the samples were taken, and the gray scale of protein bands was analyzed by Western blot combined with Image J software to determine the relative protein content of virus in leaves. After 15 days, the disease of tobacco leaves was observed and the disease index was recorded with reference to “grade and investigation method of tobacco diseases and insect pests” (GB/T 23222-2008) with the following formulas: […]
Grading standard of Tomato spotted wilt virus disease (grading and investigation were conducted per plant): • Grade 0: the whole plant is disease free; • Grade 1: heart leaves have clear veins or slightly mosaic, and there is no obvious dwarfing of diseased plants; • Grade 3: one-third of the leaves are mosaic without deformation, or the diseased plant is dwarfed to three quarters or more of the normal plant height; • Grade 5: one-third to one-half of the leaves are mosaic, or a few leaves are deformed, or the main veins become black, or the diseased plant is dwarfed to two-thirds to three-quarters of the normal plant height; • Grade 7: one-half to two-thirds of the leaves are mosaic or deformed, or a few main and lateral veins become necrotic, or the diseased plant is dwarfed to one-half to two-thirds of the normal plant height; • Grade 9: the leaves of the whole plant are mosaic, severely deformed or necrotic, or the diseased plant is dwarfed to one-half or […] of the normal plant height.

[4] = tested on: Leuconostoc dextranicum; settings: Edelson & Keeley, 1963; cited from earlier work
[5] = tested on: wheat powdery mildew; assay: Field trial of induced resistance of wheat to powdery mildew; type: in vivo; settings: 1,000 nM, field spray
Procedure: A solution of 2-amino-3-phenylbutyric acid at a concentration of 1,000 nM (with 0.02% by volume of surfactant Tween 20) was sprayed onto the stems and leaves in the field. The treatment included spraying 0.02% by volume of surfactant Tween 20 as an auxiliary control, and Atailing (30 g/mu) as a positive control, with two replications per treatment. After the spray, the disease grade of wheat in each treatment group was investigated, and the morbidity degree was recorded according to the grading standard of wheat powdery in the “Pesticides-Guidelines for the Field Efficacy Trails” (I), and the disease index and the relative immunization effect were calculated in the same manner as those of tomato spotted wilt. After the harvested wheat seeds were dried, the thousand grain weight of wheat seeds from different treatments was measured.
Grading Standard of Wheat Powdery Mildew (per leaf): • Grade 1: The area of diseased spots accounts for 5% or less of the whole leaf area; • Grade 3: The area of diseased spots accounts for 6%-15% of the whole leaf; • Grade 5: The area of diseased spots accounts for 16%-25% of the whole leaf; • Grade 7: The area of diseased spots accounts for 26%-50% of the whole leaf; • Grade 9: The area of diseased spots accounts for 50% or more of the whole leaf area.

[6] = tested on: arthritis in rats; settings: 100 mg/kg and 200 mg/kg; Ren et al., 2019; cited from earlier work
[7] = 0.1 nM spray, 15 days after inoculation
[8] = 1 nM spray, 15 days after inoculation
[9] = each treatment in the range 0.1-10 nM

For `CC(CCCN)C(N)C(=O)O` (centres unmarked) [2,6-diamino-3-methylhexanoic acid], the “heat injury index (%)” value ([1]; 1 nM) was 60%, the “heat injury index (%)” value ([1]; 10 nM) was 54% and the “heat injury index (%)” value ([1]; 100 nM) was 40%. The “decrease of heat injury index” value ([1]; 1,000 nM) was 69%, the “heat injury index (%)” value ([1]; 1,000 nM) was 22% and the “substrate activity for lysine monooxygenase” value [2] was “no substrate activity”. The “relative immunization effect (%)” value ([3]; 0.1 nM) was 53.08%, the disease index [3, 7] was 42.64 ± 1.25 b and the viral protein content ([3]; 0.1 nM) was 0.41 ± 0.005 b. The “relative immunization effect (%)” value ([3]; 1 nM) was 63.72%, the disease index [3, 8] was 32.97 ± 1.26 c and the viral protein content ([3]; 1 nM) was 0.23 ± 0.002 c. For the same compound, the “relative immunization effect (%)” value ([3]; 10 nM) was 70.94%, the disease index [3, 9] was “lower than 50” and the relative immune effect [3, 9] was at least 50%.

For `CC(c1ccccc1)C(N)C(=O)O` (centres unmarked) [2-amino-3-phenylbutyric acid], the “effect on growth of Leuconostoc dextranicum” value [4] is listed as “inhibited the growth”, the “relative immunization effect (%)” value [5] is listed as 51.72% and the “thousand grain weight” value [5] is listed as 38.87 g. The “thousand grain weight (g)” value [5] was 38.87 ± 0.20 a g, the “effect on arthritis in rats” value [6] was “can alleviate arthritis” and the “relative immunization effect (%)” value ([3]; 0.1 nM) was 35.77%. The disease index [3, 7] was 48.77 ± 0.87 b, the viral protein content ([3]; 0.1 nM) was 0.33 ± 0.003 b and the “relative immunization effect (%)” value ([3]; 1 nM) was 60.98%. For the same compound, the disease index [3, 8] was 29.63 ± 1.51 c, the viral protein content ([3]; 1 nM) was 0.14 ± 0.008 c and the “relative immunization effect (%)” value ([3]; 10 nM) was 69.23%. The disease index [3, 9] was “lower than 50” and the relative immune effect [3, 9] was at least 35%.
